The numbers were not newly measured in patent US10450322B2, “Low molecular weight derivatives of carboxamide halogenated porphyrins, namely chlorins and bacteriochlorins, and their applications thereof” (LUZITIN, S.A., priority 2015, dated 2019), which cites them from elsewhere.

For this series the following is noted: at physiological pH; cited from earlier work.

Take `Oc1cccc(-c2c3nc(c(-c4cccc(O)c4)c4ccc([nH]4)c(-c4cccc(O)c4)c4nc(c(-c5cccc(O)c5)c5ccc2[nH]5)CC4)C=C3)c1` [temoporfin, 5,10,15,20-tetra (m-hydroxyphenyl)chlorin]: the “log POW” value is 5.5.
